Data on four compounds can be found in article PMC9862186 (International Journal of Molecular Sciences, 2023).

Read-outs that look alike come from different tables or passages of the source.

Data set [1] in a line: in vivo. The settings on record: male, Wistar, rat, in vivo, iv. The protocol: (§1) A saline solution (0.9% NaCl) was added to a mixture of cinnamaldehyde (density = 1.05 g/mL) and Cremophor® RH 40 (1:1 v/v) in order to obtain a 12.5 mg/mL cinnamaldehyde emulsion in the presence of ethanol (10% of final volume). A group (n = 4) of male Wistar rats (200–250 g) fasted for 24 h was anesthetized during the experimental period and received 0.4 mL via a femoral intravenous infusion (rate = 0.2 mL/min; 2 min) of 12.5 mg/mL cinnamaldehyde emulsion (20 mg/kg cinnamaldehyde dose).
(§2) At the end of the infusions and at fixed time points, CSF samples (50 μL) were withdrawn and blood samples (100 μL) were collected. The CSF was withdrawn using the cisternal puncture method described by van den Berg et al., which requires a single needle stick and allows the collection of serials (40–50 μL) CSF samples that are virtually blood-free. A total volume of about a maximum of 150 μL of CSF/rat (i.e., three 50 μL samples/rat) was collected during the experimental session, choosing the time points (n = 3–5, taking into account a maximum of three collections per rat) in order to allow the restoring of the CSF physiological volume.
The samples were centrifuged at 12,500× g for 5 min, then about 300 μL of supernatant were withdrawn and further centrifuged. […] As a control, a blood sample (100 μL) was collected by each rat before the administrations of the drugs. The control samples were immediately added to 300 μL of ice-cold CH3CN in the absence of internal standard, then treated as described above.
For cinnamaldehyde analysis the blood samples were hemolyzed immediately after their collection with 500 μL of ice-cold water, and then 50 μL of 10% sulfosalicylic acid and 50 μL of internal standard (100 μM carbazole dissolved in a water-methanol mixture 50:50 v/v) was added. The samples were extracted twice with 1 mL of water-saturated ethyl acetate, and, after centrifugation at 12,500× g for 10 min, the organic layer was reduced to dryness under a mild nitrogen stream at room temperature. Then, 200 μL of a water-acetonitrile mixture (50:50 v/v) were added, and after centrifugation, 10 μL were analyzed via HPLC (see below) for cinnamaldehyde detection. As a control, a blood sample (100 μL) was collected by each rat before the administration of the drug. The control samples were treated as described above in the absence of internal standard.
(§3) In particular, all the AUC values referred to the bloodstream were calculated by the trapezoidal method within the last time point detected, and the remaining area was obtained as the ratio between the compound concentration detected at the last time point and the elimination constant (kel), which was obtained from the slope of the semilogarithmic plots (−slope × 2.3). The clearance (Cl) and distribution volume (Vd) values were calculated according to the non-compartmental model as the ratios “dose/AUC” and “Cl/kel”, respectively, where kel is the elimination constant obtained by the slope of semilogarithmic plot.
(§4) The chromatographic apparatus consisted of a modular system (model LC-10 AD VD pump and model SPD-10A VP variable wavelength UV−vis detector; Shimadzu, Kyoto, Japan) and an injection valve with 20 μL sample loop (model 7725; Rheodyne, IDEX, Torrance, CA, USA). Separations were performed at room temperature on a 5 μm Hypersil BDS C-18 column (150 mm × 4.6 mm i.d.; Alltech Italia Srl, Milan, Italy) equipped with a guard column packed with the same Hypersil material. The volume injection was 10 μL. Data acquisition and processing were performed on a personal computer using CLASS-VP Software, version 7.2.1 (Shimadzu Italia, Milan, Italy).
The detector was set at 205 nm.

The nature of data set [2]: in vivo. Conditions: for Kp at 10 min: R: ratio of concentration between CSF and bloodstream at Tmax. The procedure: as §1, §2, §4
For CSF simulation, standard aliquots of balanced solution (Dulbecco’s phosphate buffer saline—DPBS—without calcium and magnesium) in the presence of 0.45 mg/mL BSA were used.

Data set [3] can be described thus: in vivo. The settings on record: Wistar, rat; for bioavailability: F: absolute bioavailability. The protocol: (§5) Each type of formulation was administered to a group of four rats.
(§6) In particular, 4.2 mL of EU-CD formulation were administered to rats (500 mg/kg dose).
(§7) In particular, 320 μL of EU-SL formulation were administered to rats (500 mg/kg dose).
(§8) Free cinnamaldehyde (100 mg) was orally administered by gavage to rats kept fasting since 24 h. In particular, 95 μL of cinnamaldehyde (density = 1.05 g/mL) were dissolved in 905 μL of corn oil and administered to rats (400 mg/kg dose).
(§9) The solid AC-GN formulation (14% w/w cinnamaldehyde) was mixed with palatable food in order to induce their oral intake by the rats kept fasting since 24 h. In particular, the rats assumed a dose of 100 mg of cinnamaldehyde (400 mg/kg) contained in 714 mg of AC-GN.
(§10) After the administrations, blood (100 μL) and CSF samples (50 μL) were serially collected at fixed time points from each rat and treated as described above in order to quantify the compounds.
as §3

Data set [4] in a line: in vivo. Conditions: rat, po. The procedure:
as §2, §5, §6, §7, §8, §9, §10

For the next data set, the system named is rats. The settings on record: cited from earlier work.
The conditions of data set [5]: rat, in vivo, cited from earlier work.
For data set [6], the system named is PC12 cells. Description: Dopamine release from neuronal differentiated PC12 cells (ELISA). The data set is classed as cell-based, rat. The settings on record: 60 mM K^+, 5 min, control stimulus; baseline 393 ± 12 pg/mL. The procedure:
PC12 cell line (RRID:CVCL_0481), derived from rat adrenal gland pheochromocytoma, was a kind gift from Dr Federica Brugnoli from the Department of Translational Medicine, University of Ferrara, Ferrara (Italy). The cells were grown in RPMI-1640 (HiGlutaXL) medium (Microtech, Naples, Italy), supplemented with 100 µg/mL streptomycin and 100 IU/mL penicillin, 10% horse serum (HS), and 5% fetal bovine serum (FBS). PC12 cells were gently removed from the 4 µg/cm^2 collagen IV-coated flask with a rubber scraper, transferred as cell suspension into a Falcon tube and resuspended through a sterile tip to avoid any clumping, then split into separate flasks twice weekly. To differentiate neuronal phenotypes, PC12 cells were seeded in 4 µg/cm^2 collagen IV-coated 12-well plates at a density of 5000 cells/well, and they were then left to adhere to the well for 24 h. […] All the proliferative and differentiated cultures were maintained at 37 °C in a humidified 5% CO2 atmosphere.
PC12 cells differentiated to neuronal-like phenotype in collagen IV-treated 12-well plates, were first synchronized all to the same circadian phase and cell cycle by a serum shock (50% HS and 50% DMEM HiGlutaXL) for 2 h at 37 °C [49] to achieve a synchronous release of dopamine. Synchronization medium was then aspirated off, cells were washed with 3 × 1 mL and equilibrated for 15 min at 37 °C in 1 mL of Krebs Ringer HEPES (KRH) physiological buffer, following the recipe of Mount et al. (25 mM HEPES/Tris, pH 7.4, 1.2 mM KH2PO4, 125 mM NaCl, 4.8 mM KCl, 1.2 mM MgSO4, 2.2 mM CaCl2, 5.6 mM glucose, 1.0 mM ascorbic acid, 10 µM pargyline, 1.0 µM nomifensine). […] To remove cell debris, all samples of 1 mL incubation KRH at the end of treatments were centrifuged at 1000× g for 20 min at 4 °C and stored at −20 °C until dopamine levels were determined by ELISA assay.
Dopamine levels in 1 mL incubation KRH buffer were detected by means of an ELISA assay, based on the […] ELISA principle for detection of dopamine, following manufacturer’s instructions (IBL International, Hamburg, Germany–catalog no: RE59161; purchased from Tecan Italia S.r.I, Milan, Italy). After the substrate reaction, the intensity of the developed color was proportional to the amount of dopamine, detected at 450 nm using a microplate reader spectrophotometer (Sunrise® Microplate Reader, Tecan Trading AG, Männedorf, Switzerland). Results of samples were determined directly using the standard curve. Results are presented as mean ± SE values of four independent experiments. Data were plotted and analyzed with GraphPad software (Prism, version 7.0, San Diego, CA, USA).
For orientation: In an ELISA, binding on a coated surface is turned into a signal by an enzyme label.

Data set [7] relates to PC12 cells. The settings on record: cited from earlier work.
Where [8] appears, read: male, Wistar, rat, in vivo, iv, 20 mg/kg.

`O=C/C=C/c1ccccc1` [Cinnamaldehyde, cinnamaldehyde]: in “in vivo [1]”, the Vd was 1.32 ± 0.19 L/kg, the clearance is 39.5 ± 1.7 mL/min/kg and the half-life was determined as 23.1 ± 1.6 min. The compound also gave an AUC in the data set “in vivo [2]” (male, Wistar, rat, in vivo, iv) of 1610 ng·h/mL. In “in vivo [2]” (setting [8]), this compound showed an exposure (AUC) of 1610 ng·h/mL and a Cmax of 2040 ± 360 ng/mL. Moreover, the Kp at 10 min in the data set “in vivo [2]” (male, Wistar, rat, in vivo, iv, rat, iv, 10 min from the end of infusion) worked out at 0.156 ± 0.038. In addition, in the data set “in vivo [2]” (rat CSF, iv 20 mg/kg), the “time within which CSF concentrations decreased to zero or near to zero” value is given as at most 75 min. Besides, the “R: ratio of concentration between CSF and bloodstream at Tmax” value in the data set “in vivo [2]” (rat, iv, 10 min from the end of infusion) is given as 0.16 ± 0.04. Besides, the “Tmax: time of Cmax in the bloodstream” value in “in vivo [3]” was 40 min. In “in vivo [3]” (po), the “F: absolute bioavailability” value is recorded as 7.33 ± 0.37%, the “RB: relative bioavailability” value was 100% and the bioavailability is 7%. In addition, in “in vivo [4]”, the “AUC in CSF to last time of detection” value was found to be 0 µg·min/mL and the “Tmax: time of Cmax in CSF” value is 0 h. In addition, the “oral LD50” value in the data set on rats (oral) is reported as “about 3 g/kg”. Further, in the data set on rats (rats, iv), the “intravenous dose known to induce toxicity” value is recorded as 25 mg/kg and the “intravenous dose that appears lethal” value was 30 mg/kg. The C0 result in data set [5] (iv, 20 mg/kg) is “about 0.5 μg/mL”. In addition, the C0 entry in data set [5] (iv, 25 mg/kg) is “about 20 mg/mL”. Moreover, the “F (oral bioavailability)” value in data set [5] (po) is on record as “less than 20%”.
Take `C=C(C)[C@H]1CC=C(C)CC1` [D-Limonene, D-limonene]: in “in vivo [1]”, the “Cl: clearance” value was determined as 284 ± 10 mL·min/kg, the Vd is 5.52 ± 0.558 L/kg and the half-life is 12.4 ± 0.9 min. This compound also gave a clearance in “in vivo [1]” (Cl: clearance) of 284 ± 10.4 mL/min/kg. Further, the “detection in the CSF of rats after intravenous administration” value in the data set “in vivo [2]” (iv 100 mg/kg, within 90 min after the end of infusion) was “not detected”. Besides, in the data set “in vivo [2]” (male, Wistar, rat, in vivo, iv), the “AUC in CSF from the end of infusion to last time of detection” value was 0 µg·min/mL and the concentration ratio (Kp) at 10 min was 0. Moreover, in the data set “in vivo [3]”, the “Tmax: time of Cmax in the bloodstream” value came out at 30 min. Moreover, in the data set “in vivo [3]” (po), the “F: absolute bioavailability” value was determined as 7.04 ± 0.96% and the bioavailability was found to be 7%. In addition, in “in vivo [4]”, the “AUC in CSF to last time of detection” value came out at 0 µg·min/mL and the “Tmax: time of Cmax in CSF” value came out at 0 h. In addition, in data set [5] (iv, 200 mg/kg), the C0 result is reported as “higher than 80 μg/mL” and the “terminal t1/2” value was 280 min. In data set [5] (po, 75 mg/kg), the Cmax is about 300 ng/mL. Further, the highest concentration (Cmax) entry in data set [5] (po, 200 mg/kg) was “about 11 μg/mL”.
For `[Cl-].[K+]` [K^+, reference compound], in the data set on PC12 cells [6], the dopamine release came to 4340 ± 265 pg/mL.
On to `Oc1ccc(/C=C/c2cc(O)cc(O)c2)cc1` [resveratrol], for which the “most effective concentration in increasing the viability of PC12 cells” value with PC12 cells [7] is 25 µM.

The term Vd denotes a proportionality between amount in the body and measured concentration, not a real space. As a reminder, the clearance is the volume of plasma or blood freed of the substance per unit of time. A higher clearance goes with a high capacity for elimination. One may read the half-life as the time needed for the level to fall by half in the phase considered. Lower therefore signals fast loss. For orientation: AUC means concentration integrated over time. Low readings indicate less exposure, high ones more exposure. One may read the Cmax as the peak of the concentration-time curve. What is called Kp is tissue or fluid exposure divided by exposure in the circulation. A word on the bioavailability: it is the share of a dose that reaches the circulation, judged against a reference dose that is usually intravenous.
